Results as given in patent US4103008A, “7[2(2,3 Dioxopiperazin-1-yl-carbonylamino)substituted 2 phenylacetamido]-3-2'-thiadiazolyl cephalosporanic acid derivatives” (priority 1976, dated 1978).
In brackets after ≈: the same amount, converted by molar mass. Read-outs that look alike come from different tables or passages of the source.

Assays:
[1] = tested on: Streptococcus faecalis ATCC 8043; assay: In vitro antibacterial activity (MIC); type: cell-based; settings: Enterococcus faecalis, ATCC8043
[2] = tested on: Enterobacter strain C73-17; assay: In vitro antibacterial activity (MIC); type: cell-based; settings: C7317
[3] = tested on: Escherichia coli C 73-1; assay: In vitro antibacterial activity (MIC); type: cell-based; settings: C731
[4] = tested on: Vibrio parahaemolyticus K - 5; assay: In vitro antibacterial activity (MIC); type: cell-based; settings: K5
[5] = tested on: Staphylococcus aureus FDA 209NIH, P-J C-1; assay: In vitro antibacterial activity (MIC); type: cell-based
[6] = tested on: Shigella dysenteriae shigae; assay: microbe, parasite or virus in culture; type: cell-based
[7] = tested on: Bacillus substilis ATCC 6633; assay: In vitro antibacterial activity (MIC); type: cell-based; settings: ATCC6633
[8] = tested on: Salmonella enteritidis No. 11; assay: In vitro antibacterial activity (MIC); type: cell-based; settings: Salmonella enterica
[9] = tested on: Pseudomonas strain C73-63; assay: In vitro antibacterial activity (MIC); type: cell-based; settings: C7363
[10] = tested on: Proteus morganii C73-23; assay: In vitro antibacterial activity (MIC); type: cell-based; settings: Morganella morganii, C7323
[11] = tested on: Klebsilla pneumoniae; assay: In vitro antibacterial activity (MIC); type: cell-based
[12] = tested on: Proteus morganii kono; assay: In vitro antibacterial activity (MIC); type: cell-based; settings: Morganella morganii
[13] = Serum concentration and accumulative urinary excretion in rabbit; settings: in vivo, im
Method: (§1) Given below are the test results of in vitro antibacterial activity studies, serum concentrations and accumulative urinary excretions in rabbits and the protecting effects in mice, of some representative compounds of the invention.
(§2) The compounds used in the tests are shown in the following Table 1, but all of these compounds are in the form of the sodium salt.
Each of the test compounds (20 mg/kg) was intramuscularly administered to one group of 3 rabbits, and the amounts of antibiotics were measured by a conventional method, using Sarcina lutea.

[14] = tested on: Escherichia coli C 73-4; assay: In vitro antibacterial activity (MIC); type: cell-based; settings: C734
[15] = tested on: Serratia strain No. 2; assay: In vitro antibacterial activity (MIC); type: cell-based
[16] = tested on: Vibrio parahaemolyticus K - 3; assay: In vitro antibacterial activity (MIC); type: cell-based; settings: K3
[17] = tested on: Serratia strain No. 1; assay: In vitro antibacterial activity (MIC); type: cell-based
[18] = tested on: Pseudomonas strain C73-83; assay: In vitro antibacterial activity (MIC); type: cell-based; settings: C7383; Pseudomonas strain C73-83; in vitro; sodium salts; read-out: MIC
Source text: as §1, §2

[19] = tested on: Salmonella strain C73-1; assay: In vitro antibacterial activity (MIC); type: cell-based; settings: C731; Salmonella strain C73-1; in vitro; sodium salts; read-out: MIC
Source text: as §1, §2

[20] = tested on: Salmonella strain C 73-30; assay: In vitro antibacterial activity (MIC); type: cell-based; settings: C7330; Salmonella strain C 73-30; in vitro; sodium salts; read-out: MIC
Source text: as §1, §2

[21] = tested on: Pseudomonas aeruginosa C73-2; assay: In vitro antibacterial activity (MIC); type: cell-based; settings: C732
[22] = tested on: Pseudomonas aerugenosa E 2 strain; assay: ED50 in Pseudomonas infection in mice; type: in vivo; settings: ICR-JCL mouse, male, 20g; P. aerugenosa E 2 3.6 × 10^4 intraperitoneal; compound intramuscular after 2 hrs.; ED50 after 7 days; sodium salts
Source text: as §1, §2
Pseudomonas aerugenosa E 2 strain (3.6 × 10^4) was intraperitonealy injected to each group of 10 of ICR-JCL mouse (male, 20g). After 2 hrs., each of the test compounds was intramuscularly administered to the infected mice and the ED50 values were measured after 7 days.

[23] = Streptococcus faecalis ATCC 8043, in vitro, sodium salts, read-out: MIC
[24] = Enterobacter strain C73-17, in vitro, sodium salts, read-out: MIC
[25] = Escherichia coli C 73-1, in vitro, sodium salts, read-out: MIC
[26] = Vibrio parahaemolyticus K - 5, in vitro, sodium salts, read-out: MIC
[27] = Staphylococcus aureus FDA 209NIH, P-J C-1, in vitro, sodium salts, read-out: MIC
[28] = Bacillus substilis ATCC 6633, in vitro, sodium salts, read-out: MIC
[29] = Salmonella enteritidis No. 11, in vitro, sodium salts, read-out: MIC
[30] = Pseudomonas strain C73-63, in vitro, sodium salts, read-out: MIC
[31] = Proteus morganii C73-23, in vitro, sodium salts, read-out: MIC
[32] = Klebsilla pneumoniae, in vitro, sodium salts, read-out: MIC
[33] = Proteus morganii kono, in vitro, sodium salts, read-out: MIC
[34] = Escherichia coli C 73-4, in vitro, sodium salts, read-out: MIC
[35] = Serratia strain No. 2, in vitro, sodium salts, read-out: MIC
[36] = Vibrio parahaemolyticus K - 3, in vitro, sodium salts, read-out: MIC
[37] = Serratia strain No. 1, in vitro, sodium salts, read-out: MIC
[38] = Pseudomonas aeruginosa C73-2, in vitro, sodium salts, read-out: MIC

CCN1CCN(C(=O)N[C@@H](C(=O)NC2C(=O)N3C(C(=O)O)=C(CSc4nncs4)CS[C@H]23)c2ccc(OC(C)=O)cc2)C(=O)C1=O (single isomer, unassigned) [III, 7-[D(-)-α-(4-ethyl-2,3-dioxopiperazin-1-yl-carbonylamino)-p-acetoxyphenylacetamido]-3-(1,3,4-thiadiazol-2-yl-thiomethyl)-3-cephem-4-carboxylic acid]
MIC [1, 23]: 1.56 µg/mL
MIC [2, 24]: 25 µg/mL
MIC [3, 25]: 3.13 µg/mL
MIC [4, 26]: 6.25 µg/mL
MIC [5, 27]: 12.5 µg/mL
MIC [6]: 0.78 µg/mL (≈ 1.13 µM)
MIC [7, 28]: 12.5 µg/mL
MIC [8, 29]: 1.56 µg/mL
MIC [9, 30]: 6.25 µg/mL
MIC [10, 31]: 12.5 µg/mL
MIC [11, 32]: 0.78 µg/mL
MIC [12, 33]: 6.25 µg/mL
dose excreted at 6 h ([13]; 20 mg/kg): 48%
concentration at 0.5 h ([13]; 20 mg/kg intramuscular, after 30 mins., sodium salts, Sarcina lutea assay): 62 µg/mL
MIC [14, 34]: 3.13 µg/mL
MIC [15, 35]: 1.56 µg/mL
MIC [16, 36]: 6.25 µg/mL
MIC [17, 37]: 6.25 µg/mL
MIC [18]: 25 µg/mL
MIC [19]: 0.78 µg/mL
MIC [20]: 0.78 µg/mL
MIC [21, 38]: 1.56 µg/mL
ED50 in Pseudomonas infection in mice [22]: 2.6 mg/mouse

CCN1CCN(C(=O)N[C@@H](C(=O)N[C@@H]2C(=O)N3[C@@H]2SC(C)(C)[C@@H]3C(=O)O)c2ccccc2)C(=O)C1=O [C, sodium 6-[D(-)-α-(4-ethyl-2,3-dioxopiperazin-1-yl-carbonylamino)phenylacetamido]penicillanate, reference compound]
MIC [1, 23]: 12.5 µg/mL
MIC ([2]; Enterobacter): 6.25 µg/mL
MIC ([3]; Escherichia coli): 3.13 µg/mL
MIC [4, 26]: 12.5 µg/mL
MIC [5, 27]: 0.78 µg/mL
MIC [6]: 0.2 µg/mL
MIC [7, 28]: 0.39 µg/mL
MIC [8, 29]: < 0.05 µg/mL
MIC ([9]; Pseudomonas): 3.13 µg/mL
MIC [10]: 3.13 µg/mL
MIC [11]: 3.13 µg/mL
MIC [12, 33]: 0.78 µg/mL
MIC ([14]; Escherichia coli): 6.25 µg/mL
MIC ([15]; Serratia, NO.2): 3.13 µg/mL
MIC [16, 36]: 25 µg/mL
MIC ([17]; Serratia, NO.1): 3.13 µg/mL
MIC [18]: 50 µg/mL
MIC [19]: 6.25 µg/mL
MIC [20]: 6.25 µg/mL
MIC ([21]; Pseudomonas aeruginosa): 6.25 µg/mL

CC1(C)S[C@@H]2[C@H](NC(=O)C(C(=O)O)c3ccccc3)C(=O)N2[C@H]1C(=O)O (some centres unmarked) [CB-PC, sodium carbenicillin, reference compound]
MIC [1]: 6.25 µg/mL
MIC [2, 24]: 25 µg/mL
MIC [3, 25]: > 100 µg/mL
MIC [4, 26]: > 100 µg/mL
MIC [5, 27]: 0.2 µg/mL
MIC [6]: 0.78 µg/mL
MIC [7, 28]: < 0.05 µg/mL
MIC [8, 29]: 0.39 µg/mL
MIC ([9]; Pseudomonas): 12.5 µg/mL
MIC [10, 31]: 1.56 µg/mL
MIC [11]: 6.25 µg/mL
MIC [12, 33]: 0.39 µg/mL
MIC ([14]; Escherichia coli): 6.25 µg/mL
MIC ([15]; Serratia, NO.2): 3.13 µg/mL
MIC [16, 36]: > 100 µg/mL
MIC ([17]; Serratia, NO.1): 3.13 µg/mL
MIC [18]: > 100 µg/mL
MIC [19]: 6.25 µg/mL
MIC [20]: 6.25 µg/mL
MIC [21, 38]: 25 µg/mL
ED50 in Pseudomonas infection in mice [22]: 8.1 mg/mouse

CC1=C(C(=O)O)N2C(=O)[C@@H](NC(=O)[C@H](N)c3ccccc3)[C@H]2SC1 [CEX, sodium cephalexin, reference compound]
MIC [1]: 50 µg/mL
MIC ([2]; Enterobacter): 100 µg/mL
MIC ([3]; Escherichia coli): 25 µg/mL
MIC ([4]; Vibrio parahaemolyticus): 50 µg/mL
MIC ([5]; Staphylococcus aureus): 0.78 µg/mL
MIC [6]: 1.56 µg/mL
MIC ([7]; Bacillus): 0.39 µg/mL
MIC ([8]; ENTERITIDIS): 3.13 µg/mL
MIC [9, 30]: > 100 µg/mL
MIC [10]: > 100 µg/mL
MIC [11]: 3.13 µg/mL
MIC [12]: > 100 µg/mL
MIC ([14]; Escherichia coli): 6.25 µg/mL
MIC ([15]; Serratia, NO.2): > 100 µg/mL
MIC ([16]; Vibrio parahaemolyticus): 6.25 µg/mL
MIC ([17]; Serratia, NO.1): > 100 µg/mL
MIC [18]: > 100 µg/mL
MIC [19]: 3.13 µg/mL
MIC [20]: 3.13 µg/mL
MIC ([21]; Pseudomonas aeruginosa): > 100 µg/mL

Cc1nnc(SCC2=C(C(=O)O)N3C(=O)[C@@H](NC(=O)Cn4cnnn4)[C@H]3SC2)s1 [CEZ, sodium cefazolin, reference compound]
MIC [1, 23]: 2.5 µg/mL
MIC [2, 24]: 25 µg/mL
MIC ([3]; Escherichia coli): 3.13 µg/mL
MIC [4, 26]: 12.5 µg/mL
MIC [5, 27]: < 0.05 µg/mL
MIC [6]: 0.78 µg/mL
MIC [7, 28]: < 0.05 µg/mL
MIC [8, 29]: 0.78 µg/mL
MIC [9, 30]: > 100 µg/mL
MIC [10, 31]: > 100 µg/mL
MIC [11, 32]: 0.78 µg/mL
MIC [12, 33]: > 100 µg/mL
MIC [14, 34]: 0.78 µg/mL
MIC [15, 35]: > 100 µg/mL
MIC ([16]; Vibrio parahaemolyticus): 1.56 µg/mL
MIC [17, 37]: > 100 µg/mL
MIC [18]: > 100 µg/mL
MIC [19]: 0.78 µg/mL
MIC [20]: 0.78 µg/mL
MIC [21, 38]: > 100 µg/mL
